Data taken from patent US12624004B2 (Fudan University, priority 2019, dated 2026).

Tested on: Female mice
Test: In vivo hot plate method analgesia test
In short: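 Female mice (~20 g) on a 55° C hot plate, hindpaw response latency as pain threshold (pre-screen 5–30 s, 60 s cut-off). Latencies at 15, 30, 60 and 120 min after intraperitoneal dosing. %MPE = (post−pre latency)/(60−pre)×100, ED50 derived from %MPE.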

**Q.** For `COc1cccc(C2(O)CCCCC2CN(C)C)c1` (stereo not shown) [Tramadol, reference compound], which “analgesic effect” value (Table 1-2, hot plate, 5 mg/kg dose) is on record?
**A.** no analgesic effect

**Q.** What about the “Maximum percentage effective analgesic (% MPE)” value (Table 1-2, hot plate, 50 mg/kg dose) of the same compound?
**A.** 64.5%

**Q.** What about the “analgesic effect” value (Table 2-2, hot plate, at 5 mg/kg or 50 mg/kg dose) of the same compound?
**A.** no analgesic effect

**Q.** And the “% MPE” value (Table 2-2, hot plate, tramadol, dose of this value not clearly printed)?
**A.** 64.5%

**Q.** What about the “analgesic effect” value (Table 3-2, hot plate, @10 mg/kg) of the same compound?
**A.** no effective

**Q.** And the “% MPE” value (Table 3-2, hot plate, @50 mg/kg)?
**A.** 64.5%

**Q.** And the “analgesic effect” value (Table 4-2, hot plate, 10 mg/kg dose)?
**A.** no analgesic effect

**Q.** And the “% MPE” value (Table 4-2, hot plate, 50 mg/kg dose)?
**A.** 64.5%

**Q.** And the “analgesic effect” value (Table 5-2, hot plate, 10 mg/kg dose)?
**A.** no analgesic effect

**Q.** What about the “Maximum percentage effective analgesia (% MPE)” value (Table 5-2, hot plate, 50 mg/kg dose) of the same compound?
**A.** 64.5%
